Measured values: PubChem BioAssay (NCI)
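Assay format: 96-well plates, 48-hour exposure. TGI: concentration producing complete growth inhibition.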

Tested on: SK-MEL-2 melanoma
Test: NCI anticancer screen, dose series, 48 h

SMILES	TGI [µM]
COc1cc2cc(C(=O)N3CC(CCl)c4ccc([N+](C)(C)Cc5ccccc5[N+](=O)[O-])cc43)[nH]c2c(OC)c1OC (stereo unspecified)	4.44
CC(Cn1c2c(c3cc(O)ccc31)CCc1ccc(O)cc1-2)N(C)C (stereo unspecified)	31.1
CC1=NN(c2nc(N)nc(/C(C#N)=C\c3ccc(-c4ccc([N+](=O)[O-])cc4)o3)n2)C(C)(C)C1	> 100
CCOC(=O)c1nc2ccc(C(F)(F)F)cc2nc1Nc1ccc(OC)cc1	> 100
COc1ccc2nc3ccc(OC)cc3c(SCCCl)c2c1	> 85.1
CC(=O)[C@H]1[C@H](O)C[C@@]2(C)[C@@H]3CCc4cc(O)c(OC5OC(CO)C(O)C(O)C5O)cc4C3(C)C(=O)C[C@]12C (stereo partly specified)	> 100
CC(C)(O)c1cc2c(cc1C(C)(C)O)-c1ccccc1-2	> 100
CC(C)[Si]1(C(C)C)OCC2OC(n3ccc(=O)[nH]c3=O)C([Se]c3ccccc3)C2O[Si](C(C)C)(C(C)C)O1 (stereo unspecified)	20.1
CN(N=O)c1nc2c(C(N)=O)ncn2s1	> 100
CCOc1ccc(NC(=O)C(=O)Nn2c(N)nnc2N)cc1	> 100
CC(C)(C)OC(=O)N1CCCC1C(=O)NC(c1ccccc1)c1ccccc1 (stereo unspecified)	> 100
COC(=O)[C@@](NC(=O)OCc1ccccc1)([C@H](C)O)C(F)(F)F	> 100
Cc1[nH]c(-c2ccccc2)c2nc(N(C)C)oc(=O)c12	> 100
CC(C)(C)O/N=C/c1cc(NC(=S)c2ccsc2)ccc1Cl	29.5
O=C1Cc2cn[nH]c2-c2ccccc2N1	> 83.8
O=CNc1ccccc1OCCOc1ccccc1NC=O	> 100
C=CCN1CCC(c2cc(C(=O)OCC)[nH]c2-c2cc(C)no2)C1=O (stereo unspecified)	> 100
Cc1cc(NS(=O)(=O)c2ccc(N=[N+]([O-])c3ccc(S(=O)(=O)Nc4cc(C)on4)cc3)cc2)no1	> 100
Cc1ccc(S(=O)(=O)N2CCNCCN(S(=O)(=O)c3ccc(C)cc3)CCNCC2)cc1	41.9
Cc1sc2nc3n(c(=O)c2c1C)N=CN(c1ccc(Cl)cc1)C3	> 100

Tested on: SR leukemia
Test: NCI anticancer screen, dose series, 48 h

SMILES	TGI [µM]
O=C(NCCNCCNC(=O)c1cc(-c2ccccc2)nc2ccccc12)c1cc(-c2ccccc2)nc2ccccc12	5.37
COc1cc2cc(C(=O)N3CC(CCl)c4ccc([N+](C)(C)Cc5ccccc5[N+](=O)[O-])cc43)[nH]c2c(OC)c1OC (stereo unspecified)	4.39
CC(Cn1c2c(c3cc(O)ccc31)CCc1ccc(O)cc1-2)N(C)C (stereo unspecified)	> 100
CC1=NN(c2nc(N)nc(/C(C#N)=C\c3ccc(-c4ccc([N+](=O)[O-])cc4)o3)n2)C(C)(C)C1	> 100
CCOC(=O)c1nc2ccc(C(F)(F)F)cc2nc1Nc1ccc(OC)cc1	> 100
COc1ccc2nc3ccc(OC)cc3c(SCCCl)c2c1	15.6
CC(=O)[C@H]1[C@H](O)C[C@@]2(C)[C@@H]3CCc4cc(O)c(OC5OC(CO)C(O)C(O)C5O)cc4C3(C)C(=O)C[C@]12C (stereo partly specified)	> 100
CC(C)(O)c1cc2c(cc1C(C)(C)O)-c1ccccc1-2	> 100
CC(C)[Si]1(C(C)C)OCC2OC(n3ccc(=O)[nH]c3=O)C([Se]c3ccccc3)C2O[Si](C(C)C)(C(C)C)O1 (stereo unspecified)	27.1
CN(N=O)c1nc2c(C(N)=O)ncn2s1	> 100
CCOc1ccc(NC(=O)C(=O)Nn2c(N)nnc2N)cc1	> 100
CC(C)(C)OC(=O)N1CCCC1C(=O)NC(c1ccccc1)c1ccccc1 (stereo unspecified)	> 100
O=C(NCCN1CCCCC1)c1cccc(I)c1	> 100
COC(=O)[C@@](NC(=O)OCc1ccccc1)([C@H](C)O)C(F)(F)F	> 100
Cc1[nH]c(-c2ccccc2)c2nc(N(C)C)oc(=O)c12	> 100
CC(C)(C)O/N=C/c1cc(NC(=S)c2ccsc2)ccc1Cl	13.9
O=C1Cc2cn[nH]c2-c2ccccc2N1	71.8
O=CNc1ccccc1OCCOc1ccccc1NC=O	> 100
C=CCN1CCC(c2cc(C(=O)OCC)[nH]c2-c2cc(C)no2)C1=O (stereo unspecified)	> 100
Cc1cc(NS(=O)(=O)c2ccc(N=[N+]([O-])c3ccc(S(=O)(=O)Nc4cc(C)on4)cc3)cc2)no1	> 100
Cc1c(/C=N/NC(=S)N2CCCCC2)c(=O)n(-c2ccccc2)n1C	> 100
COc1ccc(-c2nc(Nc3ccccc3)sc2Cc2sc(Nc3ccccc3)nc2-c2ccc(OC)cc2)cc1	> 100
Cc1ccc(S(=O)(=O)N2CCNCCN(S(=O)(=O)c3ccc(C)cc3)CCNCC2)cc1	34.1
Cc1sc2nc3n(c(=O)c2c1C)N=CN(c1ccc(Cl)cc1)C3	> 100

Tested on: SW-620 colon
Test: NCI anticancer screen, dose series, 48 h

SMILES	TGI [µM]
O=C(NCCNCCNC(=O)c1cc(-c2ccccc2)nc2ccccc12)c1cc(-c2ccccc2)nc2ccccc12	3.25
COc1cc2cc(C(=O)N3CC(CCl)c4ccc([N+](C)(C)Cc5ccccc5[N+](=O)[O-])cc43)[nH]c2c(OC)c1OC (stereo unspecified)	> 75.9
CC(Cn1c2c(c3cc(O)ccc31)CCc1ccc(O)cc1-2)N(C)C (stereo unspecified)	55
CC1=NN(c2nc(N)nc(/C(C#N)=C\c3ccc(-c4ccc([N+](=O)[O-])cc4)o3)n2)C(C)(C)C1	> 100
CCOC(=O)c1nc2ccc(C(F)(F)F)cc2nc1Nc1ccc(OC)cc1	> 100
COc1ccc2nc3ccc(OC)cc3c(SCCCl)c2c1	> 100
CC(=O)[C@H]1[C@H](O)C[C@@]2(C)[C@@H]3CCc4cc(O)c(OC5OC(CO)C(O)C(O)C5O)cc4C3(C)C(=O)C[C@]12C (stereo partly specified)	> 100
CC(C)(O)c1cc2c(cc1C(C)(C)O)-c1ccccc1-2	> 100
CC(C)[Si]1(C(C)C)OCC2OC(n3ccc(=O)[nH]c3=O)C([Se]c3ccccc3)C2O[Si](C(C)C)(C(C)C)O1 (stereo unspecified)	6.62
CN(N=O)c1nc2c(C(N)=O)ncn2s1	> 100
CCOc1ccc(NC(=O)C(=O)Nn2c(N)nnc2N)cc1	> 100
CC(C)(C)OC(=O)N1CCCC1C(=O)NC(c1ccccc1)c1ccccc1 (stereo unspecified)	> 100
O=C(NCCN1CCCCC1)c1cccc(I)c1	> 100
COC(=O)[C@@](NC(=O)OCc1ccccc1)([C@H](C)O)C(F)(F)F	> 100
Cc1[nH]c(-c2ccccc2)c2nc(N(C)C)oc(=O)c12	> 100
CC(C)(C)O/N=C/c1cc(NC(=S)c2ccsc2)ccc1Cl	55.2
O=C1Cc2cn[nH]c2-c2ccccc2N1	32.4
O=CNc1ccccc1OCCOc1ccccc1NC=O	> 100
C=CCN1CCC(c2cc(C(=O)OCC)[nH]c2-c2cc(C)no2)C1=O (stereo unspecified)	> 100
Cc1c(/C=N/NC(=S)N2CCCCC2)c(=O)n(-c2ccccc2)n1C	> 100
COc1ccc(-c2nc(Nc3ccccc3)sc2Cc2sc(Nc3ccccc3)nc2-c2ccc(OC)cc2)cc1	> 100
Cc1ccc(S(=O)(=O)N2CCNCCN(S(=O)(=O)c3ccc(C)cc3)CCNCC2)cc1	> 100
Cc1sc2nc3n(c(=O)c2c1C)N=CN(c1ccc(Cl)cc1)C3	> 100

Tested on: BT-549 breast
Test: NCI anticancer screen, dose series, 48 h

SMILES	TGI [µM]
O=C(NCCNCCNC(=O)c1cc(-c2ccccc2)nc2ccccc12)c1cc(-c2ccccc2)nc2ccccc12	28.6
COc1cc2cc(C(=O)N3CC(CCl)c4ccc([N+](C)(C)Cc5ccccc5[N+](=O)[O-])cc43)[nH]c2c(OC)c1OC (stereo unspecified)	6.29
CC(Cn1c2c(c3cc(O)ccc31)CCc1ccc(O)cc1-2)N(C)C (stereo unspecified)	36.8
CC1=NN(c2nc(N)nc(/C(C#N)=C\c3ccc(-c4ccc([N+](=O)[O-])cc4)o3)n2)C(C)(C)C1	> 100
CCOC(=O)c1nc2ccc(C(F)(F)F)cc2nc1Nc1ccc(OC)cc1	86.4
COc1ccc2nc3ccc(OC)cc3c(SCCCl)c2c1	> 100
CC(=O)[C@H]1[C@H](O)C[C@@]2(C)[C@@H]3CCc4cc(O)c(OC5OC(CO)C(O)C(O)C5O)cc4C3(C)C(=O)C[C@]12C (stereo partly specified)	> 100
CC(C)(O)c1cc2c(cc1C(C)(C)O)-c1ccccc1-2	> 100
CC(C)[Si]1(C(C)C)OCC2OC(n3ccc(=O)[nH]c3=O)C([Se]c3ccccc3)C2O[Si](C(C)C)(C(C)C)O1 (stereo unspecified)	23.7
CN(N=O)c1nc2c(C(N)=O)ncn2s1	> 100
CCOc1ccc(NC(=O)C(=O)Nn2c(N)nnc2N)cc1	> 100
CC(C)(C)OC(=O)N1CCCC1C(=O)NC(c1ccccc1)c1ccccc1 (stereo unspecified)	> 100
O=C(NCCN1CCCCC1)c1cccc(I)c1	> 100
COC(=O)[C@@](NC(=O)OCc1ccccc1)([C@H](C)O)C(F)(F)F	> 100
Cc1[nH]c(-c2ccccc2)c2nc(N(C)C)oc(=O)c12	> 100
CC(C)(C)O/N=C/c1cc(NC(=S)c2ccsc2)ccc1Cl	27
O=C1Cc2cn[nH]c2-c2ccccc2N1	61.5
O=CNc1ccccc1OCCOc1ccccc1NC=O	> 100
C=CCN1CCC(c2cc(C(=O)OCC)[nH]c2-c2cc(C)no2)C1=O (stereo unspecified)	> 100
Cc1cc(NS(=O)(=O)c2ccc(N=[N+]([O-])c3ccc(S(=O)(=O)Nc4cc(C)on4)cc3)cc2)no1	> 100
Cc1c(/C=N/NC(=S)N2CCCCC2)c(=O)n(-c2ccccc2)n1C	> 100
COc1ccc(-c2nc(Nc3ccccc3)sc2Cc2sc(Nc3ccccc3)nc2-c2ccc(OC)cc2)cc1	> 100
Cc1ccc(S(=O)(=O)N2CCNCCN(S(=O)(=O)c3ccc(C)cc3)CCNCC2)cc1	47.1
Cc1sc2nc3n(c(=O)c2c1C)N=CN(c1ccc(Cl)cc1)C3	> 100

Tested on: LOX IMVI melanoma
Test: NCI anticancer screen, dose series, 48 h

SMILES	TGI [µM]
O=C(NCCNCCNC(=O)c1cc(-c2ccccc2)nc2ccccc12)c1cc(-c2ccccc2)nc2ccccc12	3.05
COc1cc2cc(C(=O)N3CC(CCl)c4ccc([N+](C)(C)Cc5ccccc5[N+](=O)[O-])cc43)[nH]c2c(OC)c1OC (stereo unspecified)	17.1
CC(Cn1c2c(c3cc(O)ccc31)CCc1ccc(O)cc1-2)N(C)C (stereo unspecified)	81
CC1=NN(c2nc(N)nc(/C(C#N)=C\c3ccc(-c4ccc([N+](=O)[O-])cc4)o3)n2)C(C)(C)C1	> 100
CCOC(=O)c1nc2ccc(C(F)(F)F)cc2nc1Nc1ccc(OC)cc1	> 100
COc1ccc2nc3ccc(OC)cc3c(SCCCl)c2c1	21.3
CC(=O)[C@H]1[C@H](O)C[C@@]2(C)[C@@H]3CCc4cc(O)c(OC5OC(CO)C(O)C(O)C5O)cc4C3(C)C(=O)C[C@]12C (stereo partly specified)	> 100
CC(C)(O)c1cc2c(cc1C(C)(C)O)-c1ccccc1-2	> 100
CC(C)[Si]1(C(C)C)OCC2OC(n3ccc(=O)[nH]c3=O)C([Se]c3ccccc3)C2O[Si](C(C)C)(C(C)C)O1 (stereo unspecified)	2.45
CN(N=O)c1nc2c(C(N)=O)ncn2s1	> 100
CCOc1ccc(NC(=O)C(=O)Nn2c(N)nnc2N)cc1	> 100
CC(C)(C)OC(=O)N1CCCC1C(=O)NC(c1ccccc1)c1ccccc1 (stereo unspecified)	> 100
O=C(NCCN1CCCCC1)c1cccc(I)c1	> 100
COC(=O)[C@@](NC(=O)OCc1ccccc1)([C@H](C)O)C(F)(F)F	> 100
Cc1[nH]c(-c2ccccc2)c2nc(N(C)C)oc(=O)c12	> 100
CC(C)(C)O/N=C/c1cc(NC(=S)c2ccsc2)ccc1Cl	30.7
O=C1Cc2cn[nH]c2-c2ccccc2N1	33.6
O=CNc1ccccc1OCCOc1ccccc1NC=O	> 100
C=CCN1CCC(c2cc(C(=O)OCC)[nH]c2-c2cc(C)no2)C1=O (stereo unspecified)	> 100
Cc1cc(NS(=O)(=O)c2ccc(N=[N+]([O-])c3ccc(S(=O)(=O)Nc4cc(C)on4)cc3)cc2)no1	> 100
Cc1c(/C=N/NC(=S)N2CCCCC2)c(=O)n(-c2ccccc2)n1C	> 100
COc1ccc(-c2nc(Nc3ccccc3)sc2Cc2sc(Nc3ccccc3)nc2-c2ccc(OC)cc2)cc1	> 100
Cc1ccc(S(=O)(=O)N2CCNCCN(S(=O)(=O)c3ccc(C)cc3)CCNCC2)cc1	25.6
Cc1sc2nc3n(c(=O)c2c1C)N=CN(c1ccc(Cl)cc1)C3	> 100

Tested on: RXF 393 renal
Test: NCI anticancer screen, dose series, 48 h

SMILES	TGI [µM]
O=C(NCCNCCNC(=O)c1cc(-c2ccccc2)nc2ccccc12)c1cc(-c2ccccc2)nc2ccccc12	3.56
